From patent US20160122386A1, “V1A RECEPTOR AGONISTS” (FERRING B.V., priority 2014, published 2016)
Read-outs that look alike come from different tables or passages of the source. Starred links: 1 amine or outer side, 2 acyl side, 3 side chain; linkers in the order of their positions; H or OH if unused. Positions of bridges follow the written chain, without caps; N, C: chain ends. Non-standard residues stand in square brackets, D forms with d. Residues, ends and D or L forms follow the SMILES beside them. Chains are numbered I, II in the order given. *: point of attachment. d(isoGln) = NC(=O)[C@@H](CCC(=O)[*:2])N[*:1]; isoGln = NC(=O)[C@H](CCC(=O)[*:2])N[*:1]; d(εLys) = N[C@H](CCCCN[*:1])C(=O)[*:2]; εLys = N[C@@H](CCCCN[*:1])C(=O)[*:2]; X4 = N[C@H](CCC(=O)[*:2])C(=O)[*:1]; Aad = N[C@@H](CCCC(=O)O)C(=O)O; Cit = NC(=O)NCCC[C@H](N)C(=O)O; Dab = NCC[C@H](N)C(=O)O; PhAc = O=C(Cc1ccccc1)*

Target: T1, human V1aR (Homo sapiens, UniProt P37288)
T1 construct: expressed in transfected cells
T1 sequence (P37288 whole entry): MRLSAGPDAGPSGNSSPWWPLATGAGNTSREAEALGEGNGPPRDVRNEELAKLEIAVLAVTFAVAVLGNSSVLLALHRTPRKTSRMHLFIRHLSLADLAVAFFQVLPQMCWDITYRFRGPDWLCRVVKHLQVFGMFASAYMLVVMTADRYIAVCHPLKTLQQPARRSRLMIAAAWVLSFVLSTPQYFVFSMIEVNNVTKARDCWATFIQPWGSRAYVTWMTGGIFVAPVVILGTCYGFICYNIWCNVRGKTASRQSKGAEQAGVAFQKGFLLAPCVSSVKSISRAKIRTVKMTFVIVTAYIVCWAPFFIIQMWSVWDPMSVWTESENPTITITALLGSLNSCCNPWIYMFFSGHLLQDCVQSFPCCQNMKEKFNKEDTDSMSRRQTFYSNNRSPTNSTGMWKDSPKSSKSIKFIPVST
Test: Agonist activity at vasopressin V1a receptors, cell-based FLIPR calcium assay
Settings: for Emax: read-out: Efficacy Avg. (%)
Protocol: Efficacy (% MPE) is also determined as the percentage of maximal possible effect. This agonist assay utilizes cells from a stable cell line (HEK-flpin) expressing the vasopressin V1a receptor. Intracellular calcium increase in response to agonist is measured through real-time fluorescence of an intracellular calcium-sensitive dye. Cells are exposed to varying concentrations of test agonist compounds whereupon release of intracellular calcium is measured to determine the agonist potency and efficacy.
The cell line stably expresses the lacZ-Zeocin™ fusion gene and is designed for use with the Flp-In™ expression vector containing the gene of interest and the Flp recombinase expression plasmid, pOG44. The cell line contains a single integrated Flp Recombination Target (FRT) site from pFRT/lacZeo or pFRT/lacZeo2. To generate the HEK-flpin cell line stably expressing the human V1aR, the cells were co-transfected with the Flp-In™ expression vector containing the gene of interest (pcDNA5/FRT-hV1aR) and the Flp recombinase expression plasmid pOG44. Flp recombinase mediates insertion of the Flp-In™ expression vector into the genome at the integrated FRT site through site-specific DNA recombination. Stable cell lines expressing the hV1aR from the Flp-In™ expression vector can be generated by selection using hygromycin B. See Life Technologies/Invitrogen manual, Growth and Maintenance of Flp-In™ Cell Lines, Version E, published Feb.
Efficacy of this compound was set to be 100%. A stock solution of 5 mM was made up in DMSO and stored at −20° C.
HEK-flpin-hV1aR, cmcqV1aR, dV1aR and pV1aR cells were maintained in DMEM containing 10% (v/v) FBS-HI, 4 mM GlutaMAX™-I, 25 μg/mL Hygromycin B at 37° C. under 5% CO2 in a humidified atmosphere. Subculture was achieved by splitting semi-confluent cultures 1:3 to 1:6.
All compounds were made up in 100% DMSO at 10 mM stock concentrations and stored at −20° C. The compounds were allowed to thaw just before the assay. […] Typical dilution procedure of 10× final assay concentration involved a 1:100 top dilution (e.g., 2 μl Stock into 198 μl dilution medium) followed by half-log serial dilutions (e.g., 25.3 μl into 54.7 μl dilution medium supplemented with 1% DMSO (v/v)). (Dilution media consisted of phenol-red free DMEM containing 10% FBS-HI, 4 mM GlutaMAX™-I). […] The final DMSO concentration in the assay was 0.1%.
Loading Buffer was prepared by dissolving 1 vial of Calcium 4 Assay reagent in 100 mL of 1× HBSS-20 mM Hepes buffer.
The cells were loaded with Loading Buffer as follows. Cell plates were removed from the incubator and 20 μl of Loading Buffer containing probenecid (2.5 mM) was added to each well. The cells were incubated for 1 hr at 37° C. under 5% CO2 in a humidified atmosphere. The calcium image was obtained as follows.
The cell plates were transferred to FLIPR Tetra, along with a 384 well V-bottom plate pre-loaded with half-log concentrations of test compounds at 10× final test concentrations. The remaining steps of the assay were carried forward by FLIPR Tetra. A baseline reading was taken at 1-second (s) intervals for 5s followed by the addition of 5 μl of 10× compounds (test, reference, or Blank). The agonist-induced fluorescence signal was then measured for 180 s with initial 120 readings at 1-second intervals followed by 20 readings at 3-second intervals. Overall, each well in the FLIPR assay was composed of the following components in a total volume of 50 μl: 20 μl cells; 20 μl Calcium 4 Loading Buffer; […] 10× test or reference compound.

[1] = HEK-flpin cells stably expressing hV1aR, intracellular calcium fluorescence, averaged, read-out: EC50 (Avg)

Structure (SMILES) | EC50 | Emax | EC50 [1]
CC[C@H](C)[C@@H]1NC(=O)[C@H](Cc2ccccc2)NC(=O)[C@@H](N)CSSC[C@@H](C(=O)N2CCC[C@H]2C(=O)N[C@@H](CCNC(=O)[C@H](N)CCCCNC(=O)CC[C@@H](NC(=O)[C@H](CCCNC(=N)N)NC(=O)[C@@H]2CCCN2C(=O)[C@H](C)NC(=O)[C@H](CC(N)=O)NC(=O)[C@H](CCC(N)=O)NC(=O)[C@H](Cc2ccccc2)NC(=O)[C@@H](Cc2ccc(OC)cc2)NC(=O)Cc2ccccc2)C(N)=O)C(=O)NCC(N)=O)NC(=O)[C@H](CC(N)=O)NC(=O)[C@H](CCC(N)=O)NC1=O [Compound 56] (I: H-CFIQNCP[Dab]G-NH2 / II: PhAc-[dY](Me)FQNAPR[d(isoGln)][d(εLys)]; disulfide I:1-I:6; amide I:8-II:C) | 1.8 nM | 60% | –
CC[C@H](C)[C@@H]1NC(=O)[C@H](Cc2ccccc2)NC(=O)[C@@H](O)CSSC[C@@H](C(=O)N2CCC[C@H]2C(=O)N[C@@H](CCCNCCCCCNC(=O)CC[C@H](NC(=O)[C@H](CCCNC(=N)N)NC(=O)[C@@H]2CCCN2C(=O)[C@H](C)NC(=O)[C@H](CC(N)=O)NC(=O)[C@H](CCC(N)=O)NC(=O)[C@H](Cc2ccccc2)NC(=O)[C@@H](Cc2ccc(OC)cc2)NC(=O)Cc2ccccc2)C(N)=O)C(=O)NCC(N)=O)NC(=O)[C@H](CC(N)=O)NC(=O)[C@H](CCC(N)=O)NC1=O [Compound 23] | 1.7 nM | 51% | –
CC[C@H](C)[C@@H]1NC(=O)[C@H](Cc2ccccc2)NC(=O)[C@@H](N)CSSC[C@@H](C(=O)N2CCC[C@H]2C(=O)N[C@@H](CCNC(=O)[C@H](N)CCC(=O)NCCCC[C@H](NC(=O)[C@H](CCCNC(=N)N)NC(=O)[C@@H]2CCCN2C(=O)[C@H](C)NC(=O)[C@H](CC(N)=O)NC(=O)[C@H](CCC(N)=O)NC(=O)[C@H](Cc2ccccc2)NC(=O)[C@@H](Cc2ccc(OC)cc2)NC(=O)Cc2ccccc2)C(N)=O)C(=O)NCC(N)=O)NC(=O)[C@H](CC(N)=O)NC(=O)[C@H](CCCC(N)=O)NC1=O [Compound 65] (I: H-CFI[Aad](NH2)NCP[Dab]G-NH2 / II: PhAc-[dY](Me)FQNAPRK-NH2; disulfide I:1-I:6; linker I:8-II:8 via X4) | 4.5 nM | 31% | –
CC[C@H](C)[C@@H]1NC(=O)[C@H](Cc2ccccc2)NC(=O)[C@@H](O)CSSC[C@@H](C(=O)N2CCC[C@H]2C(=O)N[C@@H](CCNC(=O)[C@@H](N)CCCCNC(=O)CC[C@H](NC(=O)[C@H](CCCNC(=N)N)NC(=O)[C@@H]2CCCN2C(=O)[C@H](CCCCN)NC(=O)[C@H](CC(N)=O)NC(=O)[C@H](CCC(N)=O)NC(=O)[C@H](Cc2ccccc2)NC(=O)[C@@H](Cc2ccc(OC)cc2)NC(=O)CC(C)C)C(N)=O)C(=O)NCC(N)=O)NC(=O)[C@H](CC(N)=O)NC(=O)[C@H](CCC(N)=O)NC1=O [Compound 33] | – | 50% | 1.1 nM
CC[C@H](C)[C@@H]1NC(=O)[C@H](Cc2ccccc2)NC(=O)[C@@H](N)CSSC[C@@H](C(=O)N2CCC[C@H]2C(=O)N[C@@H](CCCNCCCCCCNC(=O)CC[C@H](NC(=O)[C@H](CCCNC(=N)N)NC(=O)[C@@H]2CCCN2C(=O)[C@H](C)NC(=O)[C@H](CC(N)=O)NC(=O)[C@H](CCC(N)=O)NC(=O)[C@H](Cc2ccccc2)NC(=O)[C@@H](Cc2ccc(OC)cc2)NC(=O)CC(C)C)C(N)=O)C(=O)NCC(N)=O)NC(=O)[C@H](CC(N)=O)NC(=O)[C@H](CCC(N)=O)NC1=O [Compound 21] | – | 47% | 1.5 nM
CC[C@H](C)[C@@H]1NC(=O)[C@H](Cc2ccccc2)NC(=O)[C@@H](O)CSSC[C@@H](C(=O)N2CCC[C@H]2C(=O)N[C@@H](CCNC(=O)[C@@H](N)CCCCNC(=O)CC[C@H](NC(=O)[C@H](CCCNC(=N)N)NC(=O)[C@@H]2CCCN2C(=O)[C@H](CCCNC(=N)N)NC(=O)[C@H](CC(N)=O)NC(=O)[C@H](CCC(N)=O)NC(=O)[C@H](Cc2ccccc2)NC(=O)[C@@H](Cc2ccc(OC)cc2)NC(=O)Cc2ccccc2)C(N)=O)C(=O)NCC(N)=O)NC(=O)[C@H](CC(N)=O)NC(=O)[C@H](CCC(N)=O)NC1=O [Compound 31] | 0.83 nM | 63% | –
CC[C@H](C)[C@@H]1NC(=O)[C@H](Cc2ccccc2)NC(=O)[C@@H](O)CSSC[C@@H](C(=O)N2CCC[C@H]2C(=O)N[C@@H](CCNC(=O)[C@@H](N)CCCCNC(=O)CC[C@H](NC(=O)[C@H](CCCNC(=N)N)NC(=O)[C@@H]2CCCN2C(=O)[C@H](C)NC(=O)[C@H](CC(N)=O)NC(=O)[C@H](CCC(N)=O)NC(=O)[C@H](Cc2ccccc2)NC(=O)[C@@H](Cc2ccc(OC)cc2)NC(=O)Cc2ccccc2)C(N)=O)C(=O)NCC(N)=O)NC(=O)[C@H](CC(N)=O)NC(=O)[C@H](CCC(N)=O)NC1=O [Compound 30] | 1.1 nM | 50% | –
CC[C@H](C)[C@@H]1NC(=O)[C@H](Cc2ccccc2)NC(=O)[C@@H](N)CSSC[C@@H](C(=O)N2CCC[C@H]2C(=O)N[C@@H](CCNC(=O)[C@H](N)CCCCNC(=O)CC[C@H](NC(=O)[C@H](CCCNC(=N)N)NC(=O)[C@@H]2CCCN2C(=O)[C@H](CCCNC(N)=O)NC(=O)[C@H](CC(N)=O)NC(=O)[C@H](CCC(N)=O)NC(=O)[C@H](Cc2ccccc2)NC(=O)[C@@H](Cc2ccc(OC)cc2)NC(=O)Cc2ccccc2)C(N)=O)C(=O)NCC(N)=O)NC(=O)[C@H](CC(N)=O)NC(=O)[C@H](CCCC(N)=O)NC1=O [Compound 52] (I: H-CFI[Aad](NH2)NCP[Dab]G-NH2 / II: PhAc-[dY](Me)FQN[Cit]PR[isoGln][d(εLys)]; disulfide I:1-I:6; amide I:8-II:C) | 1.5 nM | 47% | –
CC[C@H](C)[C@@H]1NC(=O)[C@H](Cc2ccccc2)NC(=O)[C@@H](N)CSSC[C@@H](C(=O)N2CCC[C@H]2C(=O)N[C@@H](CCNC(=O)[C@@H](N)CCCCNC(=O)CC[C@H](NC(=O)[C@H](CCCNC(=N)N)NC(=O)[C@@H]2CCCN2C(=O)[C@H](C)NC(=O)[C@H](CC(N)=O)NC(=O)[C@H](CCC(N)=O)NC(=O)[C@H](Cc2ccccc2)NC(=O)[C@@H](Cc2ccc(OC)cc2)NC(=O)Cc2ccccc2)C(N)=O)C(=O)NCC(N)=O)NC(=O)[C@H](CC(N)=O)NC(=O)[C@H](CCCC(N)=O)NC1=O [Compound 50] (I: H-CFI[Aad](NH2)NCP[Dab]G-NH2 / II: PhAc-[dY](Me)FQNAPR[isoGln][εLys]; disulfide I:1-I:6; amide I:8-II:C) | 0.9 nM | 40% | –
CC[C@H](C)[C@@H]1NC(=O)[C@H](Cc2ccccc2)NC(=O)[C@@H](N)CSSC[C@@H](C(=O)N2CCC[C@H]2C(=O)N[C@@H](CCNC(=O)[C@H](N)CCCCNC(=O)CC[C@H](NC(=O)[C@H](CCCNC(=N)N)NC(=O)[C@@H]2CCCN2C(=O)[C@H](CCCNC(N)=O)NC(=O)[C@H](CC(N)=O)NC(=O)[C@H](CCC(N)=O)NC(=O)[C@H](Cc2ccccc2)NC(=O)[C@@H](Cc2ccc(OC)cc2)NC(=O)Cc2ccccc2)C(N)=O)C(=O)NCC(N)=O)NC(=O)[C@H](CC(N)=O)NC(=O)[C@H](CCC(N)=O)NC1=O [Compound 49] (I: H-CFIQNCP[Dab]G-NH2 / II: PhAc-[dY](Me)FQN[Cit]PR[isoGln][d(εLys)]; disulfide I:1-I:6; amide I:8-II:C) | 0.76 nM | 55% | –
CC[C@H](C)[C@@H]1NC(=O)[C@H](Cc2ccccc2)NC(=O)[C@@H](N)CSSC[C@@H](C(=O)N2CCC[C@H]2C(=O)N[C@@H](CCCNCCCCCNC(=O)CC[C@H](NC(=O)[C@H](CCCNC(=N)N)NC(=O)[C@@H]2CCCN2C(=O)[C@H](C)NC(=O)[C@H](CC(N)=O)NC(=O)[C@H](CCC(N)=O)NC(=O)[C@H](Cc2ccccc2)NC(=O)[C@@H](Cc2ccc(OC)cc2)NC(=O)Cc2ccccc2)C(N)=O)C(=O)NCC(N)=O)NC(=O)[C@H](CC(N)=O)NC(=O)[C@H](CCC(N)=O)NC1=O [Compound 2] | 0.69 nM | 52% | –
